In patent US11679165B2, “Alkenyl substituted 2,5-piperazinediones, compositions, and uses thereof” (Massachusetts Institute of Technology, priority 2015, dated 2023):

Assays:
[1] = test system: human Erythropoietin (EPO); test: Serum EPO after intravenous injection of EPO mRNA loaded LNPs (ELISA); format: in vivo, mice; details: for serum EPO concentration: 0.75 mg/kg intravenous, C57BL/6 mice, six hours (FIG. 2); for Average EPO: serum EPO, mean±SD (n=3), 6 hr after 0.75 mg/kg intravenous injection into mice, lipid formulated as EPO mRNA LNP
Experimental: Compounds OF-00 through OF-03 were then formulated with human erythropoietin (EPO) mRNA, cholesterol, 1,2-dioleoyl-sn-glycero-3-phosphoethanolamine, and C14-PEG-2000 in accordance with previously optimized formulation parameters for mRNA delivery. See, e.g., A. Amirouche et al., Human molecular genetics 2013, 22, 3093-3111. […] Additionally, cKK-E12 is capable of silencing Factor VII expression in mice at siRNA doses as low as 0.002 mg/kg, and as such it represents a benchmark ionizable lipid in the field of nucleic acid delivery. The nanoparticle diameters, polydispersity indices, and encapsulation efficiencies for each of these five formulations is provided in Table 1. Serum EPO concentrations are reported as mean±SD (n=3) 6 hr after a 0.75 mg/kg dose intravenous injection into mice. Encapsulation efficiencies, LNP diameter, and PDI were collected as described above for each representative LNP formulation.
Each resultant mRNA loaded LNP was then injected intravenously at a 0.75 mg/kg dose in C57BL/6 mice alongside phosphate buffered saline (PBS) as a negative control. At six hours, the serum EPO levels were quantified (FIG. 2). The PBS control imparted no significant EPO production in vivo, whereas positive control cKK-E12 LNPs promoted a serum EPO concentration of 7050 ng/mL. […] Additionally, OF-02 outperformed two other benchmark ionizable lipids from the siRNA delivery field, namely 503-013 (See, e.g, J. McClellan, M. C. King, Cell 2010, 141, 210-217; Whitehead et al., Nature Communications (2014) 5:4277) and C12-200 (K. T. Love et al., Proceedings of the National Academy of Sciences of the United States of America 2010, 107, 1864-1869). These two compounds represent the leads in their respective ionizable lipid classes of acrylate esters and amino alcohols, and promoted respective EPO concentrations of 2836 ng/mL and 7065 ng/mL at an identical dose.
General Lipid Nanoparticle (LNP) Synthesis. The organic phase was prepared by solubilizing with ethanol a mixture of ionizable lipid, 1,2-dioleoyl-sn-glycero-3-phosphoethanolamine (DOPE, Avanti), cholesterol (Sigma), and 1,2-dimyristoyl-sn-glycero-3-phosphoethanolamine-N-[methoxy(polyethyleneglycol)-2000] (ammonium salt) (C14-PEG 2000, Avanti) at a molar ratio of 35:16:46.5:2.5 and ionizable lipid:mRNA weight ratio of 10:1 in accordance with previously optimized formulation parameters for mRNA delivery. The aqueous phase was prepared in 10 mM citrate buffer (pH 3) with either EPO mRNA (human Erythropoietin mRNA, courtesy of Shire Pharmaceuticals, Cambridge, Mass.) or Luc mRNA (Firefly luciferase mRNA, Shire). The ethanol and aqueous phases were mixed at a 3:1 ratio in a microfluidic chip device (ref Delai's paper) using syringe pumps as previously described at a final mRNA concentration of 0.1 mg/mL. See, e.g., Chen et al., J. Am. Chem. Soc. (2012) 134:6948. Resultant LNPs were dialyzed against PBS in a 20,000 MWCO cassette at 4° C. for 2 hours.
(§1) Animal Experiments. […] Luminescence was quantified using LivingImage software (Perkin Elmer).

[2] = LNP diameter and polydispersity by dynamic light scattering; format: physicochemical; details: for LNP Diameter: largest intensity mean peak average
Experimental: (§2) General Lipid Nanoparticle (LNP) Synthesis. […] The ethanol and aqueous phases were mixed at a 3:1 ratio in a microfluidic chip device (ref […] paper) using syringe pumps as previously described at a final mRNA concentration of 0.1 mg/mL. See, e.g., Chen et al., J. Am. Chem. Soc. (2012) 134:6948. Resultant LNPs were dialyzed against PBS in a 20,000 MWCO cassette at 4° C. for 2 hours. LNP Characterization. To calculate the mRNA encapsulation efficiency, a modified Quant-iT RiboGreen RNA assay (Invitrogen) was used as previously described. See, […] al., J. Controlled Release (2005) 107:276-287. The diameter and polydispersity (PDI) of the LNPs were measured using dynamic light scattering (ZetaPALS, Brookhaven Instruments). LNP diameters are reported as the largest intensity mean peak average, which constituted >95% of the nanoparticles present in the sample.

Factor VII = details: mice, siRNA delivery; cited from earlier work
luciferase = test system: luciferase; parameters: species or system mice; details: mouse, in vivo
Experimental: We were interested to determine if the efficacy differences observed between ckk-E12 and OF-02 LNPs were due to variations in biodistribution. mRNA coding for luciferase was independently formulated with both ckk-E12 and OF-02 in the same fashion as for EPO delivery, and mouse organs were harvested 24 hours post injection. […] Since more than 4000 human diseases are caused by liver genetic disorders such as hemophilias A and B, OF-02 LNPs represent a promising delivery vehicle for therapeutic mRNA delivery to the liver. See, e.g., J. McClellan et al., Cell 2010, 142, 353-355.
as §1

[3] = mRNA encapsulation efficiency, modified Quant-iT RiboGreen RNA assay; format: physicochemical; details: EPO mRNA LNP formulation of the ionizable lipid
Experimental: as §2

mice = test: Mortality and weight change of mice treated with mRNA LNPs; details: all doses studied
Experimental: FIG. 7 depicts the percent weight gain for cKK-E12 and OF-02 mRNA LNPs reported as mean SD (n=3) 24 hours after respective intravenous dose into mice.
Animal Experiments. […] LNPs were intraveneously injected in female C57BL/6 mice (Charles River Labs, 18-22 grams) via the tail vein. After six or 24 hours, blood was collected via the tail vein and serum was isolated by centrifugation in serum separation tubes. Serum EPO levels were quantified with an ELISA assay (Human Erythropoietin Quantikine IVD ELISA Kit, R&D Systems, Minneapolis, Md.). 24 hours after injection of Luc-mRNA LNPs, mice were injected intraperitoneally with 130 μL of D-luciferin (30 mg/mL in PBS). After fifteen minutes, mice were sacrificed and the organs were isolated (pancreas, spleen, liver, kidneys, lungs, heart, uterus and ovaries) and imaged with an IVIS imaging system (Perkin Elmer, Waltham, Mass.). Luminescence was quantified using LivingImage software (Perkin Elmer).

SMILES | serum EPO concentration [1] | PDI [2] | LNP Diameter [2] | dose response behaviour of EPO production ([1]; 0.75 to 2.25 mg/kg EPO mRNA (FIG. 3B)) | Average EPO [1] | siRNA dose at which Factor VII expression is silenced (Factor VII) | organ of luciferase mRNA translation (total luminescence per organ) (luciferase) | Encapsulation Efficiency [3] | animal mortality (mice)
CCCCCCCCCCCCCOC(=O)CCN(CCC(=O)OCCCCCCCCCCCCC)CCN(C)CCCN(C)CCN(CCC(=O)OCCCCCCCCCCCCC)CCC(=O)OCCCCCCCCCCCCC [Compound 503-013] | 2836 ng/mL |  |  |  |  |  |  |  | 
CCCCCCCCCCC(O)CN(CCCCC1NC(=O)C(CCCCN(CC(O)CCCCCCCCCC)CC(O)CCCCCCCCCC)NC1=O)CC(O)CCCCCCCCCC (stereo not drawn) [cKK-E12] | 7050 ng/mL | 0.217 | 83 nm | linear fashion with respect to dose | 7100 ± 700 ng/mL | 2 µg/kg | predominantly translated in the liver | 54% | no animal mortality was observed
CC/C=C\C/C=C\C/C=C\CC(O)CN(CCCCC1NC(=O)C(CCCCN(CC(O)C/C=C\C/C=C\C/C=C\CC)CC(O)C/C=C\C/C=C\C/C=C\CC)NC1=O)CC(O)C/C=C\C/C=C\C/C=C\CC (stereo not drawn) [OF-03] |  | 0.239 | 75 nm |  | 140 ± 3 ng/mL |  |  | 76% | 
CCCCCCCCCCC(O)CN(CCN1CCN(CCN(CC(O)CCCCCCCCCC)CC(O)CCCCCCCCCC)CC1)CCN(CC(O)CCCCCCCCCC)CC(O)CCCCCCCCCC (stereo not drawn) [Compound C12-200] | 7065 ng/mL |  |  |  |  |  |  |  | 
